In paper PMC11862924, “Phenylpyrazoles as Inhibitors of the m^6A RNA-Binding Protein YTHDF2” (JACS Au, 2025):

Columns and labels:
[1] = biological target: T1, YTHDF2 (Homo sapiens, UniProt Q9Y5A9); test: nanoDSF thermal shift assay; assay type: binding; settings: for ΔTm at 5 µM: 5 μM compound; for ΔTm at 10 µM: 10 μM compound
T1 construct: A YTHDF2 YTH domain construct (residues 383–553) was subcloned to a pOPIN plasmid; made in house; host or cells: Escherichia coli BL21(DE3)
T1 sequence (Q9Y5A9 383-553): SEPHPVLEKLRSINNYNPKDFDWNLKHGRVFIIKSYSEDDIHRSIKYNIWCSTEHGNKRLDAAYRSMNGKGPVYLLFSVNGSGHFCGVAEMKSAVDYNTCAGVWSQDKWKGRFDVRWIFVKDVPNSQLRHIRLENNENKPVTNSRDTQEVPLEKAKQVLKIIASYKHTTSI
Protocol: NanoDSF was measured on a NanoTemper instrument (Prometheus NT.48). YTHDF2 protein was used at a concentration of 5 μM and incubated with 50, 25, 10, and 5 μM compound in buffer (100 mM KPi, pH 7.0, 250 mM NaCl, 10% Glycerol) for 50 min, in which 0.1% DMSO was used as the reference. The heat rate was set to 1 °C per minute, measured in a range between 20 and 90 °C.

[2] = biological target: T2, YTHDF3 (residues 391-585) (Homo sapiens, UniProt Q7Z739); test: FP assay with YTH domain of YTHDF3; assay type: binding; settings: 2.0 µM YTHDF3
T2 construct: YTHDF3 (residues 391–585); made in house; host or cells: Escherichia coli BL21(DE3); plasmid from the Zhou lab (Boston College)
T2 sequence (Q7Z739 391-585): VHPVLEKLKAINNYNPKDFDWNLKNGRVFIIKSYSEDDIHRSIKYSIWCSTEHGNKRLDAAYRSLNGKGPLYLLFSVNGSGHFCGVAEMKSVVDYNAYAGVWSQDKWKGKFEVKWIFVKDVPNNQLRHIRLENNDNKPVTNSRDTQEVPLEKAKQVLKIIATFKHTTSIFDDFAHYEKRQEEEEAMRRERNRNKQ
Protocol: The FP assay was performed in 384-well black plates (Corning no. 4514) with a total reaction volume of 15 μL. The final concentrations of protein (YTHDF2) and RNA were […], respectively, in a buffer containing 20 mM HEPES/KOH pH 7.5, 50 mM NaCl, 0.005% Tween 20, and 1 mM GSH (DTT). Compounds were incubated with protein, added FAM-m^6A RNA probe ([…](m6)ACUGUG) (purchased from IDT), and incubated at 4 °C for 30 min. The fluorescence polarization was measured using a plate reader (TECAN Spark) under an excitation wavelength of 485 nm and an emission wavelength of 535 nm with a bandwidth of 20 nm. […] The data were determined using GraphPad Prism 9.
Figure S9. The FP assay of YTHDF3 binding to the m6A RNA substrate. (A) The purification of YTHDF3 (residues 391-585), molecular weight: 24.1 kDa. (B) The anisotropy values using different concentrations of YTHDF3 with the m6A RNA probe (4 nM), which was used to decide the appropriate […] concentration for the FP (2.0 µM of YTHDF3, Z-factor: 0.55). (C) The […]
(1 picture or pasted object on this page, not shown here)

[3] = tested on: K562; test: CCK-8 proliferation assay, K562; assay type: cell-based; settings: Homo sapiens, CCK-8 kit assay, triplicates, 72 h, read-out: Anti-proliferation activity against cancer cells (IC50), K562
Protocol: (§1) The JAR, K562, HCT116, and MOLM13 cells were seeded in 96-well plates (3000 cells/well). After being cultured overnight, compounds were added together with the DMSO treatment (0.1%) as a control. After 72 h, CCK-8 solution (Vazyme, A311) was added, and the cells were incubated at 37 °C for 4 h. The absorbance was measured at 450 nm using a plate reader (TECAN Spark).

[4] = tested on: HCT116; test: CCK-8 proliferation assay, HCT116; assay type: cell-based; settings: Homo sapiens, HCT-116; CCK-8 kit assay, triplicates, 72 h; read-out: Anti-proliferation activity against cancer cells (IC50), HCT116
Protocol: as §1

[5] = biological target: T3, YTHDF2 YTH domain (Homo sapiens, UniProt Q9Y5A9); test: AlphaScreen assay
T3 sequence (Q9Y5A9 383-553): T1 sequence (Q9Y5A9 383-553)
Protocol: Initially, the YTHDF2 YTH domain at different concentrations (0–2500 nM) was incubated with varied concentrations of RNA probes (5’-Bi-CGAm6ACUGUC–3′, IDT company) (5, 25, 50, and 100 nM) in 25 mM Hepes (pH 7.5), 100 mM NaCl, and 0.1% BSA to probe the optimal ratio between protein and RNA before the detection signal reached saturation. The AlphaScreen Histidine Detection Kit (Nickel Chelate) (PerkinElmer) 6760619 M and white 384-well Optiplates (PerkinElmer) were used. Anti-His receptor beads (PerkinElmer) (final concentration: 20 μg/mL) and streptavidin donor beads (final concentration: 20 μg/mL) were first added. The reaction mixture was then incubated at room temperature in a dark environment for 1 h to reach equilibrium. The optical signal was detected using a Tecan plate reader.
The inhibitory activities of the phenylpyrazoles (at 100 µM) against YTHDF2 binders
in the amplified luminescent proximity homogeneous assay (AlphaScreen).
phenylpyrazoles featuring a 2 -hydroxybenzoyl moiety R1 (blue) and a 4 -carboxyphenyl moiety
represent average values ± s.d.

[6] = tested on: K562 cells; test: Cell cycle analysis by flow cytometry; assay type: cell-based, human; settings: 24 h
Protocol: K562 cells were seeded in 6-well plates (1.0 × 10^6 cells/well) and incubated overnight. Compounds of different concentrations were added to the 6-well plates. The cell cycle analysis kit (SIGMA-Aldrich, MAK344) was used after incubation for 24 h. The cells were detached with trypsin and washed with 2 mL of ice-cold cell cycle assay buffer for each sample. The supernatant was removed after centrifugation. The cells were fixed by adding 2 mL of ice-cold 70% ethanol (added dropwise while vortexing) to the cell pellet and then placed on ice for 30 min. The supernatant was removed after centrifuging at 400 × g for 5 min. Cells were washed with a cell cycle assay buffer (2 mL). Cells were resuspended completely in 500 μL of staining solution and were protected from light exposure. After being incubated at room temperature for 30 min, each sample was analyzed by flow cytometry (Sony Biotechnology Cell Sorter SH800S) with proper machine settings. The data were analyzed by cell sorter software (Sony Biotechnology).

[7] = Apoptosis assay (Annexin V/PI flow cytometry); assay type: cell-based, human; settings: human, K562 cells, read-out: Q3: viable
Protocol: K562 cells were seeded in six-well plates (1.0 × 10^6 cells/well) and incubated overnight. Compounds of different concentrations were added to the 6-well plates. After incubation for 24 h, the cells were detached with trypsin, washed twice with PBS and cold BioLegend’s cell staining buffer, and then, 5 μL of FITC Annexin V and 10 μL of propidium iodide solution were added. The cells were gently vortexed and incubated in a dark environment for 15 min at room temperature (25 °C). After adding 400 μL of Annexin V binding buffer to each tube, each sample was analyzed by flow cytometry (Sony Biotechnology Cell Sorter SH800S) with proper machine settings, and the data were analyzed by cell sorter software (Sony Biotechnology).

[8] = tested on: JAR cells; test: Colony formation assay; assay type: cell-based, human; settings: n = 3 biological replicates
Protocol: JAR cells in the growth phase are prepared into cell suspensions by traditional digestion. A cell suspension (2 mL) with 200 cells per dish was seeded into a 6-well plate and incubated for 7 days. When visible colonies are present in the 6-well plate, the medium is discarded. The colonies are carefully soaked twice in PBS and dried in air. Cells were fixed with a 4% paraformaldehyde solution for 15 min. The paraformaldehyde solution was discarded, and Giemsa was used to stain the cells for 10 min. The dye solution was slowly washed away with Milli-Q water and then dried in air. The colony number and type were assessed manually under a microscope.

ΔTm at 5 µM [1]	ΔTm at 10 µM [1]	ΔTm at 25 µM ([1]; 25 μM compound)	inhibition at 100 µM ([2]; read-out: inhibition of YTHDF3 at 100 μM in FP, 100 μM compound)	IC50 [3]	IC50 [4]	inhibition at 100 μM in AlphaScreen ([5]; 100 μM compound)	inhibitory IC50 in AlphaScreen (in words) ([5]; Figures S3 and S4)	inhibitory activity against YTHDF3 in FP (in words) [2]	Structure (SMILES)	cells in the G0/G1 phase ([6]; 25 μM)	cell cycle arrest (in words) [6]	viability at 24 h, 25 µM ([7]; 25 μM)	viability at 24 h, 50 µM ([7]; 50 μM)	viability at 24 h, 100 µM ([7]; 100 μM)	colony formation (in words) [8]
0.94 ± 0.58 °C	1.56 ± 0.41 °C	3.21 °C	12.4%	> 50 µM	> 50 µM	> 80%	low double-digit micromolar		O=C(O)c1ccc(-n2cc(C(=O)c3cc(Cl)cc(Cl)c3O)cn2)cc1 [CK-61]						
								inactive	O=C(O)c1ccc(-n2cc(C(=O)c3c(O)ccc4ccccc34)cn2)cc1 [CK-75]	> 70%	induced cell cycle arrest in the G0/G1 phase concentration-dependently	71.6%	65.1%	54.5%	concentration-dependently inhibited the colony formation
0.96 ± 0.08 °C	1.39 ± 0.37 °C			28.1 ± 1.6 µM	44 ± 6.8 µM				Cc1cc(O)c(C(=O)c2cnn(-c3ccc(C(=O)O)cc3)c2)cc1Cl [CK-79]						
